Entries after “also recorded” stand apart in the source; their conditions may differ.
Experiments:
[1] = system: RTV-268, patient 97-268 (RT M41L, D67N, M184V, L210W, T215Y, K219Q, P236L); assay: Phenotypic susceptibility assay (patient RTV); format: cell-based, HIV-1; conditions: patient virus RTV-268 vs reference virus
Source text: (§1) The resistance test vectors containing a functional luciferase gene cassette were constructed and host cells were transfected with the resistance test vector DNA. The resistant test vectors contained patient-derived reverse transcriptase and protease sequences that were either susceptible or resistant to the antiretroviral agents, such as nucleoside reverse transcriptase inhibitors, non-nucleoside reverse transcriptase inhibitors and protease inhibitors. The resistance test vector viral particles produced by transfecting the resistance test vector DNA into host cells, either in the presence or absence of protease inhibitors, were used to infect target host cells grown either in the absence of NRTI or NNRTI or in the presence of increasing concentrations of the drug. The amount of luciferase activity produced in infected target host cells in the presence of drug was compared to the amount of luciferase produced in infected target host cells in the absence of drug. Drug resistance was measured as the amount of drug required to inhibit by 50% the luciferase activity detected in the absence of drug (inhibitory concentration 50%, IC50). The IC50 values were determined by plotting percent drug inhibition vs. log10 drug concentration.
(§2) Host cells were seeded in 10-cm-diameter dishes and were transfected several days after plating with resistance test vector plasmid DNA and the envelope expression vector. Transfections were performed using a calcium-phosphate precipitation procedure. The cell culture media containing the DNA precipitate was replaced with fresh medium, from one to 24 hours, after transfection. Cell culture media containing resistance test vector viral particles was harvested one to four days after transfection and was passed through a […] filter before being stored at […]. HIV capsid protein (p24) levels in the harvested cell culture media were determined by an EIA method as described by the manufacturer (SIAC; Frederick, Md.). Before infection, target cells (293 and 293/T) were plated in cell culture media. Control infections were performed using cell culture media from mock transfections (no DNA) or transfections containing the resistance test vector plasmid DNA without the envelope expression plasmid. One to three or more days after infection the media was removed and cell lysis buffer (Promega) was added to each well. Cell lysates were assayed for luciferase activity (FIG. 3). The inhibitory effect of the drug was determined using the following equation: % luciferase inhibition=1−(RLUluc [drug]÷RLUluc)×100 where RLUluc [drug] is the relative light unit of luciferase activity in infected cells in the presence of drug and RLUluc is the Relative Light Unit of luciferase activity in infected cells in the absence of drug. IC50 values were obtained from the sigmoidal curves that were generated from the data by plotting the percent inhibition of luciferase activity vs. the log10 drug concentration. The drug inhibition curves are shown in (FIG. 3).
A resistance test vector was constructed as described in Example 1 from a patient sample designated 97-268. This patient had been treated with AZT and 3TC (NRTIs), indinavir and saquinavir (PRIs) and delavirdine (an NNRTI) for periods varying from 1 month to 2 years. Isolation of viral RNA and RT/PCR was used to generate a patient derived segment that comprised viral sequences coding for all of PR and amino acids 1-313 of RT. The patient derived segment was inserted into a indicator gene viral vector to generate a resistance test vector designated RTV-268. RTV-268 was then tested using the phenotypic susceptibility assay to determine accurately and quantitatively the level of susceptibility to a panel of anti-retroviral drugs. This panel of anti-retroviral drugs comprised members of the classes known as NRTIs (AZT, 3TC, d4T, ddI and ddC), NNRTIs (delavirdine and nevirapine), and PRIs (indinavir, nelfinavir, ritonavir, and saquinavir). An IC50 was determined for each drug tested. […]

[2] = system: Y188H-RTV; assay: Phenotypic susceptibility assay (site directed mutant RTV); format: cell-based, HIV-1; conditions: Y188H alone
Protocol: (§3) The resistance test vectors containing a functional luciferase gene cassette were constructed and host cells were transfected with the resistance test vector DNA. The resistant test vectors contained patient-derived reverse transcriptase and protease sequences that were either susceptible or resistant to the antiretroviral agents, such as nucleoside reverse transcriptase inhibitors, non-nucleoside reverse transcriptase inhibitors and protease inhibitors. […] The IC50 values were determined by plotting percent drug inhibition vs. log10 drug concentration.
(§4) Host cells were seeded in 10-cm-diameter dishes and were transfected several days after plating with resistance test vector plasmid DNA and the envelope expression vector. […] HIV capsid protein (p24) levels in the harvested cell culture media were determined by an EIA method as described by the manufacturer (SIAC; Frederick, Md.). […] The inhibitory effect of the drug was determined using the following equation: % luciferase inhibition=1−(RLUluc [drug]÷RLUluc)×100 where RLUluc [drug] is the relative light unit of luciferase activity in infected cells in the presence of drug and RLUluc is the Relative Light Unit of luciferase activity in infected cells in the absence of drug. […]

[3] = system: Y181 C mutation variant; conditions: Y181C selected during nevirapine monotherapy; cited from earlier work
[4] = system: RTV with L100I mutation alone; assay: Phenotypic susceptibility assay (site directed mutant RTV); format: cell-based, HIV-1
Source text: as §1, §2
The mutations Y188L, L100I and K103N were introduced alone and in combinationn into resistance test vectors using the mega-primer method for site-directed mutagenesis (Sakar and Sommar, Ibid.).

[5] = target: RT with P236L substitution (Human immunodeficiency virus type 1 group M subtype B, UniProt P04585, P823L); conditions: P236L substitution sensitizes RT; cited from earlier work
[6] = system: RTV-964, patient 98-964 (RT Y181I); assay: Phenotypic susceptibility assay (patient RTV); format: cell-based, HIV-1; conditions: patient RTV pool
Protocol: as §3, §4

## Cc1ccnc2c1NC(=O)c1cccnc1N2C1CC1 [nevirapine]
[1]
  change in susceptibility: no change; also recorded: same as wild type
[2]
  loss of susceptibility (fold, IC50) vs wild type control RTV: 3.5 fold
[3]
  reduction in sensitivity: 100 fold
[4]
  loss of susceptibility (fold, IC50) vs wild type control RTV: 3 fold
[5]
  reduction of IC50: 7- to 10 fold
[6]
  decrease in susceptibility (fold, IC50): 750 fold

— patent US7037644B1, “Means and methods for monitoring non-nucleoside reverse transcriptase inhibitor antiretroviral therapy and guiding therapeutic decisions in the treatment of HIV/AIDS” (ViroLogic, Inc., priority 1998, dated 2006)
